Values of other authors in patent publication US12571046B2, “Methods of detecting and treating multiple system atrophy” (THE TRANSLATIONAL GENOMICS RESEARCH INSTITUTE, priority 2020, dated 2026).

Tests used:
[1] = system: conditional QKI knock-out mouse model; details: conditional QKI-KO mouse; PPARβ and RXR agonists; literature ref [82]/[96]
α-synuclein = α-synuclein (Homo sapiens, UniProt P37840); details: in vitro; interaction at N-terminus of α-synuclein; literature ref [65]

Row | Molecule | effect on QKI deficiency-induced demyelination [1] | effect on α-synuclein fibrillization (α-synuclein)
1 | C[C@@H]1CN(c2ccc(OC(F)(F)F)cc2)C[C@H](C)N1S(=O)(=O)c1cccc2c1C[C@@H](C(=O)O)C2.Cc1ccc(S(=O)(=O)O)cc1 [KD3010] | alleviate QKI deficiency-induced demyelination in the mouse | 
2 | C=C(c1ccc(C(=O)O)cc1)c1cc2c(cc1C)C(C)(C)CCC2(C)C [bexarotene] | alleviate QKI deficiency-induced demyelination in the mouse | 
3 | Vitamin K |  | delays α-synuclein fibrillization
